Data reported in article PMC2880888 (Journal of medicinal chemistry, 2010).
Blank lines part the entries; values can stand above or below the compound they belong to.

How the values were obtained:
[1] = system: control 1321N1 astrocytoma cells; assay: calcium flux in control 1321N1 astrocytoma cells; format: cell-based, human; details: 10 µM, non-transfected 1321N1 astrocytoma cells
cardiac P2X receptor = details: cited from earlier work
[2] = stability of the C-O-P bond in aqueous medium at pH 1.5; format: physicochemical; details: aqueous medium at pH 1.5, over 24 h
aorta ring preparations = details: cited from earlier work
CSQ-overexpressing mouse = details: Alzet mini-osmotic pump; cited from earlier work
[3] = hydrolysis of the 5’-phosphate in the presence of mammalian cell membranes; format: in vitro ADME; details: incubation at 37°C with 1321N1 astrocytoma cell membranes (data not shown)

Structure (SMILES): CSc1nc(N)c2ncn([C@@H]3O[C@H](COP(=O)(O)OP(=O)(O)O)[C@@H](O)[C@H]3O)c2n1 [Compound 2-MeSADP, 2-MeSADP]
- change in intracellular Ca2+ in control cells [1]: no change

- stability of the C-O-P bond [2]: stable
- hydrolysis of the 5’-phosphate [3]: considerable hydrolysis
Structure (SMILES): Nc1nc(Cl)nc2c1ncn2[C@H]1[C@H](O)[C@H](O)[C@@]2(COP(=O)(O)O)C[C@H]12 [Compound 3, (1’S,2’R,3’S,4’R,5’S)-4-(6-amino-2-chloro-9H-purin-9-yl)-1-[phosphoryloxymethyl] bicyclo[3.1.0]hexane-2,3-diol]
- current induced in the CSQ myocyte (cardiac P2X receptor; CSQ myocyte): induced a current
- vasodilator action (aorta ring preparations): devoid of any vasodilator action
- longevity compared to vehicle-injected mice (CSQ-overexpressing mouse): significantly increased longevity

Structure (SMILES): CNc1nc(I)nc2c1ncn2[C@H]1C[C@H](OP(=O)(O)O)[C@]2(COP(=O)(O)O)C[C@H]12 [MRS2500]
- block of the membrane current evoked by 3 (cardiac P2X receptor; voltage clamp in mouse cardiac myocytes): could not block
